Patent publication US20240299698A1, “PREVENTION AND TREATMENT OF POST-OPERATIVE COGNITIVE DYSFUNCTION (POCD)” (Noetix Pharma LLC, priority 2022, published 2024)

Assays:
[1] = Stability of pirfenidone dose preparation in vehicle; assay type: physicochemical; conditions: 0.9% saline
Protocol: • Vehicle: 0.9% saline • Working concentration: 66.67 mg/ml • Preparation: Add 1000 mg of pirfenidone to 15 mL of 0.9% saline • Stability in vehicle: Stable for a minimum of 8 days
• Vehicle: 0.9% saline • Working concentration: 33.33 mg/mL • Preparation: Add 12 mL of high dose pirfenidone to 12 mL of 0.9% saline • Stability in vehicle: Stable for a minimum of 8 days

[2] = healthy subjects; cited from earlier work
mouse model of (POCD) [3] = experiment: Fear conditioning context testing in laparotomy mouse model of POCD; assay type: in vivo, Male C57BI/6 mice
From the text: (§1) To induce POCD, mice were anesthetized with isoflurane and maintained at a surgical plane of anesthesia (2-2.5%). The abdomen was shaved and cleaned/disinfected with both betadine and ethanol (70%). A 1.5 cm vertical incision was made along the midline of the abdomen, perforating the skin and the peritoneal cavity. A sterile blunt probe was inserted into the cavity, and the abdominal viscera and musculature were manipulated for five minutes. Abdominal muscles and skin were sutured, polysporin and topical lidocaine were applied to the incision site, and buprenorphine (0.1 mg/kg s.c.) was administered. Animals were placed into a clean, pre-warmed home cage for recovery and housed singly thereafter.
Fear conditioning is a commonly used test of associative learning where a […] stimulus is paired with an aversive unconditioned stimulus, resulting in a freezing response that can be subsequently quantified. Training occurred on the day prior to surgery, context testing on PSD1 (i.e., 2 days after training) and PSD3 (i.e., 4 days after training), and cued testing on PSD3 at a time point three hours after the final context test. For training and context testing, mice were placed in an operant chamber (Med Associates). For cued testing, mice were placed into a novel arena with novel external environment and scent.
Fear conditioning training was performed to generate an association between a neutral “conditional” stimulus (80 dB tone) with an aversive “unconditional” stimulus (0.4 mA shock). Before training, the system was tested to confirm proper operation of the shock and tone. During training, the testing environment was kept quiet and well controlled. Temperature and humidity levels were kept constant and the experimenter was not visible from the operant chamber, which was cleaned between animals. The training protocol was as follows: 1. Each mouse was habituated to the testing room for 20 minutes. 2. Video recording was initiated and the animal's ID card was recorded. 3. Each mouse was placed into the operant chamber and the training protocol was implemented as follows: a. 120 seconds; no stimuli (habituation to the chamber); b. 20 seconds, tone presentation (80 dB); c. 20 seconds, no stimuli (trace delay period); d. 2 seconds, foot shock (0.4 mA); e. 90 seconds, no stimuli (intertrial interval); f. repeat steps a-d followed by a final 30 second no stimuli period. 4. The mouse was returned to its home cage.
The purpose of context testing is to evaluate context memory for an aversive environment. Materials for this process included the operant testing chamber, a video recorder, a stopwatch, and data recording sheets. During the testing process the testing environment was kept quiet and well controlled with constant temperature and humidity levels. It was ensured that the experimenter was not visible from the operant chamber. The chamber was cleaned between animals.
Context testing was performed as follows: 1. The mouse was habituated to the testing room for 15 minutes. 2. Video recording was initiated and the animal's ID card recorded. 3. The mouse was placed in the operation chamber and allow ed 270 seconds exploration time. 4. The mouse was returned to its home cage.
Fear conditioning context testing was performed on PSD1 and PSD3, with exposure to the contextual environment presented at the equivalent time of day to the training period in the same arena as was used for training. On PSD3, following the final contextual testing, the cued testing phase was performed. […]

mouse model of (POCD) [4] = experiment: Novel object recognition testing in laparotomy mouse model of POCD; assay type: in vivo, Male C57BI/6 mice; conditions: for novel object preference, 24-hour (long term) testing: PSD6
From the text: as §1
Novel object recognition (NOR) is a tool used to assess the ability of mice to differentiate between familiar and novel objects (i.e., recognition memory). The paradigm relies on the tendency of rodents to interact more with a novel object than a familiar one. In this task, acclimation to the test arena was provided on the day prior to training (PSD4) and the initial test trial (short-term recall), presented one hour following training on PSD5. The second test trial (long-term recall) was performed 24 hours later (PSD6). Object recognition may be determined through evaluation of the percent time spent exploring a novel object relative to the total time spent exploring both novel and familiar objects; normal animals will spend more time exploring a novel object. If the exploration of both objects is the same, this behavior can be a sign of a recognition memory deficit.
(§2) The acclimation process was as follows: 1. The animal was brought into the testing room in a transfer cage. 2. Video recording was begun and the animal's ID card was recorded. 3. The mouse was placed in the center of the arena and allowed to explore freely for 5 minutes. 4. The mouse was returned to its home cage.
as §2, with “paired object training” for “acclimation”, “10” for “5”
(§3) The novel object (1 hour) test was performed as follows: 1. The arena was prepared with one original object (block) and one novel object (ball) present. 2. The animal was brought into the testing room in a transfer cage. 3. Video recording was begun and the animal's ID card was recorded. 4. The mouse was placed in the center of the arena and allowed to explore for 10 minutes. 5. The mouse was returned to its home cage.
as §3, with “(24” for “(1”, “(dome)” for “(ball)”

- Stability in vehicle ([1]; 33.33 mg/mL (low dose)): ≥ 8 days
- Stability in vehicle ([1]; 66.67 mg/ml (high dose)): ≥ 8 days
Structure (SMILES): Cc1ccc(=O)n(-c2ccccc2)c1 [pirfenidone, 5-methyl-1-phenyl-2-(1H)-pyridone]
- mean terminal half-life [2]: approximately 3 hours
- time spent freezing, contextual test, within-group PSD3 compared to PSD1 (mouse model of (POCD) [3]; Acute (400 mg/kg p.o. single presurgical dose), p=0.009, paired t-test): less time freezing
- time spent freezing, contextual test, within-group PSD3 compared to PSD1 (mouse model of (POCD) [3]; Chronic (400 mg/kg initial; 200 mg/kg p.o. 1x/day), p=0.942, paired t-test): no difference between test presentation days
- time spent freezing, contextual test (mouse model of (POCD) [3]; PSD1, Acute (400 mg/kg p.o. single presurgical dose) compared to Chronic pirfenidone animals, p=0.027, LSD post-hoc): increased freezing
- time spent freezing, contextual test (mouse model of (POCD) [3]; PSD3, Acute (400 mg/kg p.o. single presurgical dose) vs Normal Controls): performed equivalently to Normal Controls
- time spent freezing, contextual test, between groups (mouse model of (POCD) [3]; PSD3, Acute and Chronic groups and controls, p=0.671, One-way ANOVA): no statistical difference between groups
- preference index, within-group 1-hour vs 24-hour (mouse model of (POCD) [4]; Acute, p=0.762, paired t-test (statistically equivalent)): retained memory for the familiar object
- preference index, within-group 1-hour vs 24-hour (mouse model of (POCD) [4]; Chronic, p=0.828, paired t-test (statistically equivalent)): retained memory for the familiar object
- total object exploration time, 1 hour test compared with training (mouse model of (POCD) [4]; PSD5, Acute, p=0.01, within group paired t-test): decrease in total time spent interacting with objects
- total object exploration time, 1 hour test compared with training (mouse model of (POCD) [4]; PSD5, Chronic, p=0.04, within group paired t-test): decrease in total time spent interacting with objects
- novel object preference, 1-hour (short term) testing, between groups (mouse model of (POCD) [4]; PSD5, all treatment groups, p=0.376, one-way ANOVA): no main effect for treatment
- novel object preference, 24-hour (long term) testing (mouse model of (POCD) [4]; Acute vs Disease Controls, p=0.08, LSD post-hoc): trend toward increased preference
- novel object preference, 24-hour (long term) testing (mouse model of (POCD) [4]; Chronic vs Disease Controls, p=0.09, LSD post-hoc): trend toward increased preference
